{"source": "patent US20260308159A1", "about": "“BICYCLIC HETEROARYLAMIDES HAVING GPR68 MODULATING ACTIVITY” (RECURSION PHARMACEUTICALS, INC., priority 2023, published 2026)"}
{"biological_target": "T1, human GPR68 (Homo sapiens, UniProt Q15743)", "T1 construct": "encoding full-length human GPR68 (uniprot ID: Q15743); expressed in transfected cells; host or cells: HEK293T", "T1 sequence (Q15743 whole entry)": "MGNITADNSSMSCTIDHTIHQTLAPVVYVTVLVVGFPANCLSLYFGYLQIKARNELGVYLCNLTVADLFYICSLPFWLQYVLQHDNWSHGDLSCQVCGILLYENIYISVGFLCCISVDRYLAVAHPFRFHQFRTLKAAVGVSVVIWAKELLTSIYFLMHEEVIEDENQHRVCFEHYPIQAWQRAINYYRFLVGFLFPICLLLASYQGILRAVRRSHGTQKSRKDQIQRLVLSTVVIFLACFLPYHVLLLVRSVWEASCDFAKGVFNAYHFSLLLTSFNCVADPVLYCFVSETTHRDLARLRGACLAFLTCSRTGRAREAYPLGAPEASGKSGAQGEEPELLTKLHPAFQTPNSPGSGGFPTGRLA", "test": "GPR68 Biochemical Assay (Promega GloSensor cAMP assay, GPR68 antagonism)", "type": "cell-based", "conditions": "HEK293T cells transiently expressing hGPR68, antagonism of pH 5.5 stimulated cAMP, 15 min, read-out: hGPR68 IC50", "description": "(§1) GPR68 antagonism was determined using the Promega GloSensor™ CAMP assay (F. I. Wang et al., Methods 2021, S1046-2023 (21) 00249-8). HEK293T cells (obtained from ECACC, Cat 12022001, Lot no. 17E044) were cultured in T175 flasks (Greiner, Cat 660175) in DMEM (Gibco, Cat 11995-065) supplemented with 10% Fetal Bovine Serum (Gibco Cat 16000-044), and 100 u/mL Pen-Strep (Gibco, Cat 15140) at 37° C. and 5% CO2. GPR68 expression was achieved by transient transfection with a mammalian expression plasmid encoding full-length human GPR68 (uniprot ID: Q15743) under control of a CMV promoter. The day before transfection, cell media was aspirated and HEK293T cells were incubated with accutase (Sigma, Cat A6964) for 3-4 minutes 37° C. and 5% CO2 before being manually detached with excess DMEM and trituration. Cell density was determined by automated cell counting (Countess, Invitrogen) and adjusted to 6×10^6 cells/20 mL and transferred to 15 cm dishes (Thermo Fisher, Cat 130183) for overnight incubation at 37° C. and 5% CO2. The next day separate mammalian expression plasmids encoding hGPR68 (4 μg) and Promega GloSensor (8 μg) were diluted to 1 mL in Opti-MEM (Thermo Fisher Scientific, Cat 31985070) and incubated with 30 μL of lipofectamine 3000 (also diluted to 1 mL in Opti-MEM) for 15 minutes at room temperature and subsequently added dropwise to the plated cells. Post transfection cells were then incubated at 37° C. and 5% CO2 for at least 16 hours before transfer to assay plates the following day. Transfer was conducted by washing cells with PBS and incubating with accutase for 3-4 minutes 37° C. and 5% CO2 before being manually detached with excess DMEM and mild trituration. The suspension was then centrifuged at 192 RCF for 4 minutes in a 50 mL centrifuge tube (Greiner, Cat 227261).\n(§2) Supernatant was removed by aspiration and the cell pellet was resuspended in DMEM+1% dialysed FBS (Gibco, Cat 26400-044) and 100 u/mL Pen-Strep to a cell density of 500 cells/μL. Cells were plated into poly-L-Lysine coated 384-well white assay plates (Corning, Cat 3570) at a final volume of 40 µL and a density of 20,000 cells/well before overnight incubation at 37° C. and 5% CO2. The following day media was manually ejected from the 384-well assay plate and replaced with 10 μL GloSensor substrate (Promega, Cat E1291) prepared in pH 8.0 assay buffer (1×HBSS, 10 mM HEPES, 10 mM MOPS). Cells were incubated with this solution for 60 minutes at room temperature in the dark. Test compounds or an equivalent volume of DMSO (vehicle) were added to compounds plates to create a 9-point, half-log concentration series for each compound with a maximum final assay concentration of 50 μM and a consistent final DMSO concentration of 0.5%. Assay buffer with 0.1% BSA and 0.01% ascorbic acid was prepared at three pHs: pH 8.0, pH 5.5 and pH 4.5. pH 8.0 and 4.5 were added to the compound plate as maximum and minimum effect controls whilst pH 5.5 was added to all compound wells to stimulate GPR68 to a level corresponding to […] of maximal stimulation after addition to the cells already in pH 8.0 (assay acceptance criteria range 70-90%). DMSO/Compound and buffer was added to the plated cells containing the GloSensor substrate and incubated for 15 minutes at room temperature before being read on a microplate reader (BMG PHERAstar, optic module LUM Plus with Gain 3600). Data was exported and analysed in excel and Graphpad prism (version 9). Assay QC acceptance criteria required the maximum and minimum controls to return a Z′≥0.5, the EC80 to be 80%±10% of expected and the reference ligand pIC50 to be within one-half-log unit of its historical IC50. Percent inhibition was calculated using the mean EC80 (pH 5.5) and mean minimum effect control (pH 8.0). Data were plotted as percentage inhibition, average±SEM. IC50, Emax, Emin, Actual max, actual min, R^2 and fit confidence were calculated using Graphpad Prism's sigmoidal dose-response function.", "units": {"IC50": "nM"}}
{"smiles": "COCc1nn2c(C(=O)Nc3cc(C)cc(C)n3)ccnc2c1C(N)=O", "note": "[Compound 64, N7-(4,6-dimethyl-2-pyridyl)-2-(methoxymethyl)pyrazolo[1,5-a]pyrimidine-3,7-dicarboxamide]", "IC50": "< 50"}
{"smiles": "NC(=O)c1c(C2CC2)nc2c(C(=O)NC3CS(=O)(=O)c4ccccc43)ccnn12", "note": "(stereo not drawn) [Compound 222, 2-cyclopropyl-N8-(1,1-dioxo-2,3-dihydrobenzothiophen-3-yl) imidazo[1,2-b]pyridazine-3,8-dicarboxamide]", "IC50": "< 50"}
{"smiles": "NC(=O)c1cnn2c(C(=O)NC3CC4(CCOCC4)C3)ccnc12", "note": "[Compound 12, N7-(7-oxaspiro[3.5]nonan-2-yl)pyrazolo[1,5-a]pyrimidine-3,7-dicarboxamide]", "IC50": "50000 to 100000"}
{"smiles": "COCc1nn2c(C(=O)N[C@H]3C[C@@H](OC(F)(F)F)C3)cc(C)nc2c1C(N)=O", "note": "[Compound 206, 2-(methoxymethyl)-5-methyl-N7-[cis-3-(trifluoromethoxy)cyclobutyl]pyrazolo[1,5-a]pyrimidine-3,7-dicarboxamide]", "IC50": "50 to 500"}
{"smiles": "COCc1nn2c(C(=O)NC3COc4ccccc43)ccnc2c1C(N)=O", "note": "(stereo not drawn) [Compound 75, N7-(2,3-dihydrobenzofuran-3-yl)-2-(methoxymethyl)pyrazolo[1,5-a]pyrimidine-3,7-dicarboxamide]", "IC50": "< 50"}
{"smiles": "COCc1nn2c(C(=O)N3CCN(c4ncccc4C(F)(F)F)CC3)ccnc2c1C(N)=O", "note": "[Compound 89, 2-(methoxymethyl)-7-[4-[3-(trifluoromethyl)-2-pyridyl]piperazine-1-carbonyl]pyrazolo[1,5-a]pyrimidine-3-carboxamide]", "IC50": "50000 to 100000"}
{"smiles": "COCc1nn2c(C(=O)N[C@H]3C[C@@H](OC(F)(F)F)C3)ccnc2c1C(N)=O", "note": "[Compound 61, 2-(methoxymethyl)-N7-[cis-3-(trifluoromethoxy)cyclobutyl]pyrazolo[1,5-a]pyrimidine-3,7-dicarboxamide]", "IC50": "< 50"}
{"smiles": "CC(C)c1nn2c(C(=O)NC3CCS(=O)(=O)c4ccccc43)ccnc2c1C(N)=O", "note": "(stereo not drawn) [Compound 230, N7-(1,1-dioxo-3,4-dihydro-2H-thiochromen-4-yl)-2-isopropyl-pyrazolo[1,5-a]pyrimidine-3,7-dicarboxamide]", "IC50": "< 50"}
{"smiles": "COCc1nn2c(C(=O)NC3COc4c(F)cccc43)ccnc2c1C(N)=O", "note": "(stereo not drawn) [Compound 192, N7-(7-fluoro-2,3-dihydrobenzofuran-3-yl)-2-(methoxymethyl)pyrazolo[1,5-a]pyrimidine-3,7-dicarboxamide]", "IC50": "< 50"}
{"smiles": "COCc1nn2c(C(=O)NCC3(N(C)C)CCCCC3)ccnc2c1C(N)=O", "note": "[Compound 90, N7-[[1-(dimethylamino)cyclohexyl]methyl]-2-(methoxymethyl)pyrazolo[1,5-a]pyrimidine-3,7-dicarboxamide]", "IC50": "50000 to 100000"}
{"smiles": "NC(=O)c1c(C2CC2)nn2c(C(=O)NC3CC(F)(F)C3)ccnc12", "note": "[Compound 136, 2-cyclopropyl-N7-(3,3-difluorocyclobutyl)pyrazolo[1,5-a]pyrimidine-3,7-dicarboxamide]", "IC50": "< 50"}
{"smiles": "COCc1nc2c(C(=O)NC3Cc4ccccc43)ccnn2c1C(N)=O", "note": "(stereo not drawn) [Compound 106, N8-(7-bicyclo[4.2.0]octa-1,3,5-trienyl)-2-(methoxymethyl)imidazo[1,2-b]pyridazine-3,8-dicarboxamide]", "IC50": "< 50"}
{"smiles": "COCc1nn2c(C(=O)NC3Cc4ccccc43)ccnc2c1C(N)=O", "note": "(stereo not drawn) [Compound 88, N7-(7-bicyclo[4.2.0]octa-1,3,5-trienyl)-2-(methoxymethyl)pyrazolo[1,5-a]pyrimidine-3,7-dicarboxamide]", "IC50": "< 50"}
{"smiles": "COCc1nn2c(C(=O)NC3Cc4cccnc4C3)ccnc2c1C(N)=O", "note": "(single isomer, unassigned) [Compound 147, N7-(6,7-dihydro-5H-cyclopenta[b]pyridin-6-yl)-2-(methoxymethyl)pyrazolo[1,5-a]pyrimidine-3,7-dicarboxamide]", "IC50": "< 50"}
{"smiles": "CNc1nn2c(C(=O)NC3CC(F)(F)C3)ccnc2c1C(N)=O", "note": "[Compound 34, N7-(3,3-difluorocyclobutyl)-2-(methylamino)pyrazolo[1,5-a]pyrimidine-3,7-dicarboxamide]", "IC50": "< 50"}
{"smiles": "COCc1nn2c(C(=O)Nc3ccc(F)cc3F)ccnc2c1C(N)=O", "note": "[Compound 68, N7-(2,4-difluorophenyl)-2-(methoxymethyl)pyrazolo[1,5-a]pyrimidine-3,7-dicarboxamide]", "IC50": "< 50"}
{"smiles": "NC(=O)c1c(COCF)nn2c(C(=O)N[C@H]3C[C@@H](OC(F)(F)F)C3)ccnc12", "note": "[Compound 158, 2-(fluoromethoxymethyl)-N7-[cis-3-(trifluoromethoxy)cyclobutyl]pyrazolo[1,5-a]pyrimidine-3,7-dicarboxamide]", "IC50": "< 50"}
{"smiles": "COCc1nn2c(C(=O)NC3Cc4ccccc4C3)cc(C)nc2c1C(N)=O", "note": "[Compound 227, N7-indan-2-yl-2-(methoxymethyl)-5-methyl-pyrazolo[1,5-a]pyrimidine-3,7-dicarboxamide]", "IC50": "< 50"}
{"smiles": "CCCc1nn2c(C(=O)NC3Cc4ccccc4C3)ccnc2c1C(N)=O", "note": "[Compound 139, N7-indan-2-yl-2-propyl-pyrazolo[1,5-a]pyrimidine-3,7-dicarboxamide]", "IC50": "< 50"}
{"smiles": "NC(=O)c1cnn2c(C(=O)NC3Cc4nccn4C3)ccnc12", "note": "(stereo not drawn) [Compound 19, N7-(6,7-dihydro-5H-pyrrolo[1,2-a]imidazol-6-yl)pyrazolo[1,5-a]pyrimidine-3,7-dicarboxamide]", "IC50": "5000 to 50000"}
{"smiles": "COCc1nn2c(C(=O)NC(C)c3ccc(F)cc3)ccnc2c1C(N)=O", "note": "(stereo not drawn) [Compound 122, N7-[1-(4-fluorophenyl)ethyl]-2-(methoxymethyl)pyrazolo[1,5-a]pyrimidine-3,7-dicarboxamide]", "IC50": "50 to 500"}
{"smiles": "NC(=O)c1c(C2CC2)nn2c(C(=O)N[C@H]3C[C@@H](OC(F)(F)F)C3)ccnc12", "note": "[Compound 111, 2-cyclopropyl-N7-[cis-3-(trifluoromethoxy)cyclobutyl]pyrazolo[1,5-a]pyrimidine-3,7-dicarboxamide]", "IC50": "< 50"}
{"smiles": "COCc1nn2c(C(=O)NC3CC4(C3)CC(F)(F)C4)ccnc2c1C(N)=O", "note": "[Compound 126, N7-(2,2-difluorospiro[3.3]heptan-6-yl)-2-(methoxymethyl)pyrazolo[1,5-a]pyrimidine-3,7-dicarboxamide]", "IC50": "50 to 500"}
{"smiles": "CNC(=O)c1c(COC)nn2c(C(=O)N[C@H]3C[C@@H](OC(F)(F)F)C3)ccnc12", "note": "[Compound 161, 2-(methoxymethyl)-N3-methyl-N7-[cis-3-(trifluoromethoxy)cyclobutyl]pyrazolo[1,5-a]pyrimidine-3,7-dicarboxamide]", "IC50": "500 to 5000"}
{"smiles": "COCc1nn2c(C(=O)N3Cc4ccccc4C3)ccnc2c1C(N)=O", "note": "[Compound 95, 7-(isoindoline-2-carbonyl)-2-(methoxymethyl)pyrazolo[1,5-a]pyrimidine-3-carboxamide]", "IC50": "500 to 5000"}
{"smiles": "COCc1nn2c(C(=O)NC3CCS(=O)(=O)c4ccccc43)ccnc2c1C(N)=O", "note": "(stereo not drawn) [Compound 189, N7-(1,1-dioxo-3,4-dihydro-2H-thiochromen-4-yl)-2-(methoxymethyl)pyrazolo[1,5-a]pyrimidine-3,7-dicarboxamide]", "IC50": "< 50"}
{"biological_target": "T1, human GPR68", "test": "GPR68 Biochemical Assay (Promega GloSensor cAMP assay, GPR68 antagonism)", "type": "cell-based", "conditions": "hGPR68 IC50, HEK293T cells transiently expressing hGPR68, antagonism of pH 5.5 stimulated cAMP, 15 min", "description": "as §1, §2", "units": {"IC50": "nM"}}
{"smiles": "CC(C)OCc1nn2c(C(=O)NC3Cc4ccccc4C3)ccnc2c1C(N)=O", "note": "[Compound 27, N7-indan-2-yl-2-(isopropoxymethyl)pyrazolo[1,5-a]pyrimidine-3,7-dicarboxamide]", "IC50": "< 50"}
